Experimental data from US20250186627A1, “RADIOLABELED COMPOUNDS TARGETING THE PROSTATE-SPECIFIC MEMBRANE ANTIGEN” (PROVINCIAL HEALTH SERVICES AUTHORITY, priority 2022, published 2025).
*1 amine or outer side, *2 acyl side, *3 side chain or, on linkers, in order; H or OH if unused. Where a SMILES comes first, the peptide text is derived from it. [ ]: non-standard residue; d: D form. The star is where a group is joined. AadUreaLys(Nε) = O=C(O)CCC[C@H](NC(=O)N[C@@H](CCCCN*)C(=O)O)C(=O)O; DOTA = O=C(O)CN1CCN(CC(=O)O)CCN(CC(=O)*)CCN(CC(=O)O)CC1; Ala(9-anthryl) = N[C@@H](Cc1c2ccccc2cc2ccccc12)C(=O)O; Butanoyl(4-(4-MeO-phenyl)) = COc1ccc(CCCC(=O)*)cc1; X1 = O=C(C1CCC(CN[*:1])CC1)[*:2]

What was measured:
PSMA = target: T1, PSMA (Homo sapiens, UniProt Q04609); test: In vitro PSMA competitive binding assay, LNCaP cells, [18F]DCFPyL radioligand; settings: [18F]DCFPyL 0.1 nM, read-out: PSMA binding affinity (Ki)
T1 construct: endogenous in cells; host or cells: LNCaP cells
T1 sequence (Q04609 whole entry): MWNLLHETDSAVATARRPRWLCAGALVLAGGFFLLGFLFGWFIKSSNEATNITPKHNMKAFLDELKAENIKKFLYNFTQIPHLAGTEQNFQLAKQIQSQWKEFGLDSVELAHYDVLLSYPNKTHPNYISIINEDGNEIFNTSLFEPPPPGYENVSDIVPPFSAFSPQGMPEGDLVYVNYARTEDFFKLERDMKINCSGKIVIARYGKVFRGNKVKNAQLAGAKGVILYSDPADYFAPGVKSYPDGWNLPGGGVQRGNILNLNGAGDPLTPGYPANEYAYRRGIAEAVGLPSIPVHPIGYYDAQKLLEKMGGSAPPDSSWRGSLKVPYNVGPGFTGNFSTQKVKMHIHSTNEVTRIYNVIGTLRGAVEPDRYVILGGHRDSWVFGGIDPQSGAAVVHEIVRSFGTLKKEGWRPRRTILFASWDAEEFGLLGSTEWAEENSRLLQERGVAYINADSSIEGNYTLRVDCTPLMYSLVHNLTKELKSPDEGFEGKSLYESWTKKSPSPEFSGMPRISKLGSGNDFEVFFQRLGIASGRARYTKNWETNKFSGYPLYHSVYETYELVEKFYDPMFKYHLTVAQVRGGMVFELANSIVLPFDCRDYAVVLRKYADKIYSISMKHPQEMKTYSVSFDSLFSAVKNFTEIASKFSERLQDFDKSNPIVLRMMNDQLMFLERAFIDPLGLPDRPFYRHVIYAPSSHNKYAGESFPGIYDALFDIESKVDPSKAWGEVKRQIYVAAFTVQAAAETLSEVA
Protocol: Inhibition constants (Ki) to PSMA were measured by in vitro competition binding assays using [^18F]DCFPyL as the radioligand. LNCaP cells which were plated onto a 24-well poly-D-lysine coated plate for 48 h (400,000/well). Growth medium was removed and replaced with HEPES buffered saline (50 mM HEPES, pH 7.5, 0.9% sodium chloride). After 1 h, [^18F]DCFPyL (0.1 nM) was added to each well (in triplicate) containing varied concentrations ([…]) of tested compounds The assay mixtures were incubated for 1 h at 37° C. with gentle agitation followed by two washes with cold HEPES buffered saline. A trypsin solution (0.25%, 400 μL) was then added to each well to harvest the cells. Radioactivity was measured by gamma counting and Ki values calculated using the ‘one site—fit Ki’ built-in model in Prism 8 (GraphPad).

Human serum albumin = target: T2, Human serum albumin (Homo sapiens, UniProt P02768); test: Human serum albumin binding assay (Transil HSA binding kit); settings: read-out: Human albumin binding affinity (Kd)
T2 construct: purchased Sovicell
T2 sequence (P02768 25-609): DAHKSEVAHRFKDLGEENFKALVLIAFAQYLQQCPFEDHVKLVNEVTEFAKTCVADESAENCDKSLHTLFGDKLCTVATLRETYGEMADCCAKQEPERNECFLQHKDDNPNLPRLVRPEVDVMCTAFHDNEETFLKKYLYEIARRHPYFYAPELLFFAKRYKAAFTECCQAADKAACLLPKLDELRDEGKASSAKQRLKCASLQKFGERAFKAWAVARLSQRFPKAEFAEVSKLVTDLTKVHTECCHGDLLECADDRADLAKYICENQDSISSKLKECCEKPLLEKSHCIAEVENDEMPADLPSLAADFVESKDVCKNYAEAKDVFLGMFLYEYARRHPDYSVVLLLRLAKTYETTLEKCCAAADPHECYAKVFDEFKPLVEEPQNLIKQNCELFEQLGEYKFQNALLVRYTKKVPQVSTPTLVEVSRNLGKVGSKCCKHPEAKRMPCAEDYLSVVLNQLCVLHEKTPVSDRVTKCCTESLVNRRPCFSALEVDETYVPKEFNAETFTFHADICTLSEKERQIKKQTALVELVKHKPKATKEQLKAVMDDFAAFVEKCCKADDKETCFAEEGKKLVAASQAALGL
Protocol: Human serum albumin binding assay was performed using Transil HSA binding kit (Sovicell) according to manufacturer's recommended procedures.

Row | Compound | Ki (PSMA) [nM] | Kd (Human serum albumin) [µM]
1 | COc1ccc(CCCC(=O)NCC(=O)N[C@@H](CCCCNC(=O)CN2CCN(CC(=O)O)CCN(CC(=O)O)CCN(CC(=O)O)CC2)C(=O)NCC(=O)NCC2CCC(C(=O)N[C@@H](Cc3c4ccccc4cc4ccccc34)C(=O)NCCCC[C@H](NC(=O)N[C@@H](CCCC(=O)O)C(=O)O)C(=O)O)CC2)cc1 (some centres unmarked) [CCZ02009] ({Butanoyl(4-(4-MeO-phenyl))}-GK(DOTA)G[X1][Ala(9-anthryl)]-{AadUreaLys(Nε)}) | 0.12 ± 0.02 | 64.9 ± 2.2
2 | COc1ccc(CCCC(=O)NCC(=O)N[C@@H](CCCCNC(=O)CN2CCN(CC(=O)O)CCN(CC(=O)O)CCN(CC(=O)O)CC2)C(=O)NCC(=O)NCC(=O)NCC2CCC(C(=O)N[C@@H](Cc3c4ccccc4cc4ccccc34)C(=O)NCCCC[C@H](NC(=O)N[C@@H](CCCC(=O)O)C(=O)O)C(=O)O)CC2)cc1 (some centres unmarked) [CCZ02060] ({Butanoyl(4-(4-MeO-phenyl))}-GK(DOTA)GG[X1][Ala(9-anthryl)]-{AadUreaLys(Nε)}) | 1.09 ± 0.19 | –
3 | COc1ccc(CCCC(=O)NCC(=O)N[C@@H](CCCCNC(=O)CN2CCN(CC(=O)O)CCN(CC(=O)O)CCN(CC(=O)O)CC2)C(=O)NCC2CCC(C(=O)N[C@@H](Cc3c4ccccc4cc4ccccc34)C(=O)NCCCC[C@H](NC(=O)N[C@@H](CCCC(=O)O)C(=O)O)C(=O)O)CC2)cc1 (some centres unmarked) [HTK03170, reference compound] | 1.53 ± 0.33 | 70.1 ± 3.2
